Experimental data from US8889671B2, “Compounds and methods for treating bacterial infections” (AstraZeneca AB, priority 2013, dated 2014).
≈ marks a conversion by molar mass, not a printed value. Read-outs that look alike come from different tables or passages of the source.

Legend:
[1] = system: Staphylococcus aureus; experiment: Susceptibility testing (MIC) Assay 1, broth microdilution; assay type: cell-based; conditions: Staphylococcus aureus
[2] = system: Streptococcus pneumoniae; experiment: as above; assay type: cell-based
[3] = system: Streptococcus pyogenes; experiment: as above; assay type: cell-based; conditions: Streptococcus pyogenes, Streptococcus pyrgenes, in vivo strain; read-out: Spy MIC
[4] = system: Staphylococcus aureus; experiment: Modal MIC against S. aureus isolates of the thigh model; assay type: cell-based
Procedure: The S. aureus strains used included a methicillin-resistant isolate obtained from the American Type Culture Collection (ATCC33591) (MRSA). In addition, three S. aureus clinical isolates were utilized; (1) a methicillin sensitive isolate (MSSA); (2) a recent methicillin-resistant clinical isolate of the USA300 genotype (USA300) and (3) a recent methicillin-resistant clinical isolate of the USA100 genotype ([…]).
The MIC against each isolate was determined using the broth microdilution method following CLSI guidelines (Rayner et al. Clinical pharmacodynamics of linezolid in seriously ill patients treated in a compassionate use program. Clin Pharmacokinet 2003. 42:1411-23). Ten individual determinations were performed for each strain and the Modal MIC was used for all PK/PD calculations.

[5] = Plasma pharmacokinetics in S. aureus infected mice; assay type: in vivo, mouse; conditions: intraperitoneal, mice with ABT
Procedure: Groups of satellite mice infected with S. aureus were used for determining plasma concentrations. Dosing started 2 hours after infection and whole blood samples were taken at time points 0.5, 1, 2, 4, 6, 8, 12 and 24 h by submandibular bleed or by cardiac puncture following carbon dioxide asphyxiation and cervical dislocation. Whole blood was sampled into microcontainer tubes containing ethylenediamine tetraacetic acid (EDTA) (Beckton Dickenson). Three mice per time point were used. Plasma was separated by centrifugation for five minutes at 13200 rpm and stored at −20° C. until bioanalysis.
Biological samples containing Example 5 were extracted using protein precipitation. To one volume of sample, 5 volumes of acetonitrile containing the internal standard (Glyburide) were added. […] A Sciex API 4000, controlled by Analyst v1.4.2, was used for the acquisition of the data and the quantification of Example 5.
The plasma profile for each dose group was obtained by calculating the average plasma concentration of compound in each of the three animals per time point. The area under the plasma concentration time curve from zero to infinity (AUC); maximum plasma drug concentration (Cmax); time to reach maximum concentration (tmax); and plasma half-life (t1/2) for each dose group was determined by non-compartmental analysis (WinNonLin 5.2, Pharsight). […]

[6] = system: Burkholderia cepacia; experiment: In vitro antibacterial activity of Example 5 (MIC); assay type: cell-based
[7] = system: Citrobacter koseri; experiment: In vitro antibacterial activity of Example 5 (MIC); assay type: cell-based
[8] = system: Enterobacter aerogenes; experiment: In vitro antibacterial activity of Example 5 (MIC); assay type: cell-based; conditions: Klebsiella aerogenes
[9] = system: Enterobacter cloacae; experiment: In vitro antibacterial activity of Example 5 (MIC); assay type: cell-based
[10] = system: Haemophilus influenzae; experiment: In vitro antibacterial activity of Example 5 (MIC); assay type: cell-based
[11] = system: Proteus vulgaris; experiment: In vitro antibacterial activity of Example 5 (MIC); assay type: cell-based
[12] = system: Staphylococcus saprophyticus; experiment: In vitro antibacterial activity of Example 5 (MIC); assay type: cell-based
[13] = system: Streptococcus agalactiae; experiment: In vitro antibacterial activity of Example 5 (MIC); assay type: cell-based
[14] = system: Streptococcus constellatus; experiment: In vitro antibacterial activity of Example 5 (MIC); assay type: cell-based
[15] = system: Bacteroides fragilis; experiment: In vitro antibacterial activity of Example 5 against anaerobes (MIC, agar dilution); assay type: cell-based
[16] = system: Legionella pneumophila; experiment: microbe, parasite or virus in culture; assay type: cell-based
[17] = system: 7 S. aureus strains and 1 strain of Streptococcus pyogenes; experiment: Minimum bactericidal concentration (MBC); assay type: cell-based, Staphylococcus aureus; Streptococcus pyogenes; conditions: 7 S. aureus strains and 1 S. pyogenes strain
[18] = system: Staphylococcus aureus, Streptococcus pneumoniae, and S. pyogenes strains with characterized gyrase and topoisomerase mutations; assay type: cell-based; conditions: clinical isolates with mutations in gyrA, gyrB, ParC or ParE
[19] = system: Streptococcus pyogenes ATCC12384; experiment: S. pyogenes neutropenic mouse thigh infection model, PK/PD
[20] = S. pyogenes ATCC12384, neutropenic mouse thigh

SMILES: C[C@@H]1CN2c3c(cc4c(N5C(=O)OC[C@@H]5C)noc4c3F)CC3(C(=O)NC(=O)NC3=O)[C@H]2[C@H](C)O1 [Example 5, (2R,4S,4aS)-11-Fluoro-2,4-dimethyl-8-[(4S)-4-methyl-2-oxo-1,3-oxazolidin-3-yl]-1,2,4,4a-tetrahydro-2′H,6H-spiro[1,4-oxazino[4,3-a][1,2]oxazolo[4,5-g]quinoline-5,5′-pyrimidine]-2′,4′,6′(1′H,3′H)-trione]
- MIC ([1]; Staphylococcus aureus in vivo strain, MSQS, read-out: Sau(d) MIC): 0.36 µM (≈ 0.175 µg/mL)
- MIC ([1]; in vivo strain, MRQR, read-out: Sau(e) MIC): 0.78 µM (≈ 0.38 µg/mL)
- MIC ([1]; serum, read-out: Sau(f) MIC): 0.71 µM (≈ 0.346 µg/mL)
- MIC ([2]; in vivo strain (footnote b), read-out: Spn(b) MIC): 0.39 µM (≈ 0.19 µg/mL)
- MIC ([2]; in vivo strain (footnote c), read-out: Spn(c) MIC): 0.46 µM (≈ 0.224 µg/mL)
- MIC [3]: 0.36 µM (≈ 0.175 µg/mL)
- MIC ([4]; ATCC 33591 / MRSA, S. aureus MRSA (ATCC33591)): 0.125 µg/mL (≈ 0.256 µM)
- MIC ([4]; S. aureus MSSA clinical isolate): 0.0625 µg/mL (≈ 0.128 µM)
- MIC ([4]; S. aureus USA100 clinical isolate): 0.125 µg/mL (≈ 0.256 µM)
- MIC ([4]; S. aureus USA300 clinical isolate): 0.25 µg/mL (≈ 0.513 µM)
- pharmacokinetics over the dosing range [5]: nonlinear pharmacokinetics
- time of maximum concentration post-administration [5]: 0.5 h
- MIC [6]: 64 µg/mL (≈ 131 µM)
- MIC [7]: 64 µg/mL (≈ 131 µM)
- MIC [8]: 64 µg/mL (≈ 131 µM)
- MIC ([9]; Enterobacter cloacae (Chromosomal AmpC)): 32 µg/mL (≈ 65.6 µM)
- MIC ([9]; Enterobacter cloacae, read-out: MIC): 32 µg/mL (≈ 65.6 µM)
- MIC ([10]; ATCC49619, Haemophilus influenzae (ATCC 49619 CLSI QC Strain)): 0.25 µg/mL (≈ 0.513 µM)
- MIC90 ([10]; Haemophilus influenzae, n=29): 1 µg/mL (≈ 2.05 µM)
- MIC range ([10]; Haemophilus influenzae, n=29): 0.125 to 1 µg/mL
- MIC [11]: 32 µg/mL (≈ 65.6 µM)
- MIC [12]: 0.5 µg/mL (≈ 1.03 µM)
- MIC90 ([12]; S. saprophyticus, n=16): 0.5 µg/mL (≈ 1.03 µM)
- MIC [13]: 0.5 µg/mL (≈ 1.03 µM)
- MIC90 ([13]; 100 strains of S. Agalactiae): 0.25 µg/mL (≈ 0.513 µM)
- MIC50 ([13]; 100 strains of S. Agalactiae, read-out: MIC50 (MICH [sic])): 0.125 µg/mL (≈ 0.256 µM)
- MIC [14]: 0.03 µg/mL (≈ 0.0615 µM)
- MIC ([15]; Bacteroides fragilis (isolates not further specified)): 8 µg/mL (≈ 16.4 µM)
- MIC ([15]; Bacteroides fragilis, ATCC25285, Bacteroides fragilis (ATCC 25285, CLSI QC Strain), read-out: MIC): 2 µg/mL (≈ 4.1 µM)
- MIC ([15]; Bacteroides fragilis, Bacteroides fragilis (isolates not further specified), read-out: MIC): 4 µg/mL (≈ 8.21 µM)
- MIC90 [16]: 0.06 µg/mL (≈ 0.123 µM)
- MIC range ([16]; n=11): 0.008 to 0.06 µg/mL
- minimum bactericidal concentrations (MBCs) relative to the MIC [17]: ≤ 2 fold
- cross resistance [18]: No cross resistance
- efficacy in vivo ([19]; S. pyogenes ATC12384 in neutropenic mice): dose-dependent efficacy
- AUC value for 1-log reduction [19, 20]: 76 μg·h/mL
- AUC value for 2-log reduction [19, 20]: 95 μg·h/mL
- AUC value for stasis [19, 20]: 60 µg·h/mL
- AUC/MIC (free), EC50 ± SEM (% CV) ([19]; S. pyogenes neutropenic dose response): 151 ± 7 (5%)
